These compounds were tested against T1, androgen receptor (Homo sapiens, UniProt P10275) (assay: AR Antagonist Cell Assay (MMTV-luciferase reporter, inhibition of DHT induction)). Conditions: MDA-MB453-MMTV clone 54-19 cells, 100 pM DHT, 17 hr, luciferase; read-out: Cell IC50.
T1 sequence (P10275 1-920 Q868H): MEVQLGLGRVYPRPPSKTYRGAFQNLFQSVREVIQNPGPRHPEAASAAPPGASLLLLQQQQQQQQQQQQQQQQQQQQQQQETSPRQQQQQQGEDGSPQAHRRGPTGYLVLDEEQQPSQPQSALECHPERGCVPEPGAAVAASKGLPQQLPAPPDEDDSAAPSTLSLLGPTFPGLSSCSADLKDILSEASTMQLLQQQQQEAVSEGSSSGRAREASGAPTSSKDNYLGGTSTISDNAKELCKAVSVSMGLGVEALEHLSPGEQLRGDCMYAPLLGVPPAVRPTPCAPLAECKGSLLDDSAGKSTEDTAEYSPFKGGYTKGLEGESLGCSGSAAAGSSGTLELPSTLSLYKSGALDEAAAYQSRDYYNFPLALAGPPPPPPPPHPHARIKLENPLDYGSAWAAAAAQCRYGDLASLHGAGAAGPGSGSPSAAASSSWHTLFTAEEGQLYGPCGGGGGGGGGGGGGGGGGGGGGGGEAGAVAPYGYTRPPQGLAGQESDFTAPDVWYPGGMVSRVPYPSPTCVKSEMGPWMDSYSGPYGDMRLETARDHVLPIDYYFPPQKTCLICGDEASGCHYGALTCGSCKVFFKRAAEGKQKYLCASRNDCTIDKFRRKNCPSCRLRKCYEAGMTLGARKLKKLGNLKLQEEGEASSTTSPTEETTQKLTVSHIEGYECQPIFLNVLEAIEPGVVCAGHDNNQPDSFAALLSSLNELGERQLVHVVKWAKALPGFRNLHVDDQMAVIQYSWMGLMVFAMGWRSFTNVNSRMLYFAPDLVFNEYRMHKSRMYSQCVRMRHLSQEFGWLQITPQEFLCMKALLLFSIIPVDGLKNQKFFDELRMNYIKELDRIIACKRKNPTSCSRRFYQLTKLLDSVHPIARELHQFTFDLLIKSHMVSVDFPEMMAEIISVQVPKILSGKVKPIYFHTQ
Assay type: cell-based
Method: The compounds ability to antagonize the effects of androgen on the androgen receptor were determined in the protocol described immediately below.
Experimental Procedure for AR Antagonist Cell Assay
Cell line: MDA-MB453-MMTV clone 54–19. This cell line is a stable transfected cell line with MDA-MB453 cell background (human breast tumor cell expressing high level of androgen receptor). A MMTV minimal promoter containing ARE was first cloned in front of a firefly luciferase reporter gene. Then the cascade was cloned into transfection vector pUV120puro. Electroporation method was used for transfecting MDA-MB-453 cell. Puromycin resistant stable cell line was selected. Cell Culture Media and Reagents:
Culture medium: DMEM (high glucose, Gibco cat #: 11960-044), 10% FBS, and 1% L-glutamine
Plating medium: DMEM (phenol red free), 10% charcoal treated HyClone serum, 1% L-glutamine
Assay medium: DMEM (phenol red free), 1% charcoal treated HyClone serum, 1% L-glutamine, and 1% penicillin/streptomycin
3× luciferase buffer: 2% beta-mercaptoethanol, 0.6% ATP, 0.0135% luciferine in cell lysis buffer
• 1. Cells are maintained in culture medium, splitting cells when they reach 80–90% confluence • 2. To test compounds, 10,000 cells/well are plated to opaque 96 cell culture plate in 100 ul/well plating medium, culture for overnight at 37° C. in cell culture incubator • 3. Carefully remove plating medium, then add 80 ul/well of pre-warmed assay medium, add 10 ul/well testing compound (final concentration at 10 uM or 1 uM), incubate at 37° C. for 30 minutes • 4. Add 10 ul/well freshly prepared DHT (final concentration at 100 pM) to each well, incubate at 37° C. for 17 hr (overnight) • 5. Add 50 ul/well 3× luciferase buffer, incubate at room temperature for 5 minutes, then count on Luminometer The fold induction over background by 100 pM DHT in the absence of testing compounds is standardized as 100% and experimental result is expressed as percentage of inhibition by testing compounds.
`O=c1cc(C(F)(F)F)c2cc(S(=O)(=O)N3CCC(N4CCCC4)CC3)ccc2[nH]1` [Example 13, 6-(4-Pyrrolidin-1-ylpiperidine-1-sulfonyl)-4-trifluoromethyl-1H-quinolin-2-one] gave an IC50 of over 10000 nM. `O=c1cc(C(F)(F)F)c2cc(S(=O)(=O)N3CCC3)ccc2[nH]1` [Example 39, 6-(Azetidine-1-sulfonyl)-4-trifluoromethyl-1H-quinolin-2-one] showed an IC50 of 430 nM. For `O=c1cc(C(F)(F)F)c2cc(S(=O)(=O)N3CCCC(CO)C3)ccc2[nH]1` (stereo not drawn) [Example 25, 6-(3-Hydroxymethylpiperidine-1-sulfonyl)-4-trifluoromethyl-1H-quinolin-2-one], the IC50 was 3540 nM. Work on `O=c1cc(C(F)(F)F)c2cc(S(=O)(=O)N3Cc4ccccc4C3)ccc2[nH]1` [Example 18, 6-(1,3-Dihydroisoindole-2-sulfonyl)-4-trifluoromethyl-1H-quinolin-2-one] yielded an IC50 of 490 nM. With `O=c1cc(C(F)(F)F)c2cc(S(=O)(=O)N3CCCCCCC3)ccc2[nH]1` [Example 12, 6-(Azocane-1-sulfonyl)-4-trifluoromethyl-1H-quinolin-one] the IC50 was 1230 nM. Compound `CCOC(=O)C1CCN(S(=O)(=O)c2ccc3[nH]c(=O)cc(C(F)(F)F)c3c2)CC1` [Example 15, 1-(2-Oxo-4-trifluoromethyl-1,2-dihydroquinoline-6-sulfonyl)piperidine-4-carboxylic acid ethylester] has an IC50 of 1260 nM. Compound `CCOC(=O)C1CCN(S(=O)(=O)c2ccc3c(c2)c(C(F)(F)F)cc(=O)n3C)CC1` [Example 3, 1-(1-Methyl-2-oxo-4-trifluoromethyl-1,2-dihydroquinoline-6-sulfonyl)piperidine-4-carboxylic acid ethyl ester] has an IC50 of over 10000 nM. `O=c1cc(C(F)(F)F)c2cc(S(=O)(=O)N3CCN(c4ccccc4)CC3)ccc2[nH]1` [Example 28, 6-(4-Phenylpiperazine-1-sulfonyl)-4-trifluoromethyl-1H-quinolin-2-one] showed an IC50 of over 10000 nM. `COc1cc2c(cc1OC)CN(S(=O)(=O)c1ccc3[nH]c(=O)cc(C(F)(F)F)c3c1)CC2` [Example 21, 6-(6,7-Dimethoxy-3,4-dihydro-1H-isoquinoline-2-sulfonyl)-4-trifluoromethyl-1H-quinolin-2-one] showed an IC50 of 480 nM. For `O=c1cc(C(F)(F)F)c2cc(S(=O)(=O)N3CCN(Cc4ccco4)CC3)ccc2[nH]1` [Example 17, 6-(4-Furan-2-ylmethylpiperazine-1-sulfonyl)-4-trifluoromethyl-1H-quinolin-2-one], the IC50 was 2960 nM. Compound `O=c1cc(C(F)(F)F)c2cc(S(=O)(=O)N3CCCC4CCCCC43)ccc2[nH]1` (stereo not drawn) [Example 31, 6-(Octahydroquinoline-1-sulfonyl)-4-trifluoromethyl-1H-quinolin-2-one] has an IC50 of 440 nM. Work on `Cn1c(=O)cc(C(F)(F)F)c2cc(S(=O)(=O)N3CCCCCC3)ccc21` [Example 9, 6-(Azepane-1-sulfonyl)-1-methyl-4-trifluoromethyl-1H-quinolin-2-one] yielded an IC50 of over 10000 nM. Work on `CCN1CCN(S(=O)(=O)c2ccc3c(c2)c(C(F)(F)F)cc(=O)n3C)CC1` [Example 5, 6-(4-Ethylpiperazine-1-sulfonyl)-1-methyl-4-trifluoromethyl-1H-quinolin-2-one] yielded an IC50 of over 10000 nM. Compound `O=c1cc(C(F)(F)F)c2cc(S(=O)(=O)N3CCCC3)ccc2[nH]1` [Example 33, 6-(Pyrrolidine-1-sulfonyl)-4-trifluoromethyl-1H-quinolin-2-one] has an IC50 of 310 nM. With `Cn1c(=O)cc(C(F)(F)F)c2cc(S(=O)(=O)N3CCCc4ccccc43)ccc21` [Example 11, 6-(3,4-Dihydro-2H-quinoline-1-sulfonyl)-1-methyl-4-trifluoromethyl-1H-quinolin-2-one] the IC50 was over 10000 nM. `O=c1cc(C(F)(F)F)c2cc(S(=O)(=O)N3CCN(CCOCCO)CC3)ccc2[nH]1` [Example 20, 6-{4-[2-(2-Hydroxyethoxy)-ethyl]piperazine-1-sulfonyl}-4-trifluoromethyl-1H-quinolin-2-one] showed an IC50 of over 10000 nM. For `O=c1cc(C(F)(F)F)c2cc(S(=O)(=O)N3CCSC3)ccc2[nH]1` [Example 26, 6-(Thiazolidine-3-sulfonyl)-4-trifluoromethyl-1H-quinolin-2-one], the IC50 was 160 nM. `O=c1cc(C(F)(F)F)c2cc(S(=O)(=O)N3CCCCC3CCO)ccc2[nH]1` (stereo not drawn) [Example 29, 6-[2-(2-Hydroxyethyl)-piperidine-1-sulfonyl]-4-trifluoromethyl-1H-quinolin-2-one] gave an IC50 of over 10000 nM. `Cn1c(=O)cc(C(F)(F)F)c2cc(S(=O)(=O)N3CCSC3)ccc21` [Example 7, 1-Methyl-6-(thiazolidine-3-sulfonyl)-4-trifluoromethyl-1H-quinolin-2-one] showed an IC50 of over 10000 nM. `O=c1cc(C(F)(F)F)c2cc(S(=O)(=O)N3CCN(c4cnccn4)CC3)ccc2[nH]1` [Example 42, 6-(2,3,5,6-Tetrahydro-[1,2′]bipyrazinyl-4-sulfonyl)-4-trifluoromethyl-1H-quinolin-2-one] was tested, and the IC50 was over 10000 nM. `CC1CCCCN1S(=O)(=O)c1ccc2[nH]c(=O)cc(C(F)(F)F)c2c1` (stereo not drawn) [Example 37, 6-(2-Methylpiperidine-1-sulfonyl)-4-trifluoromethyl-1H-quinolin-2-one] was tested, and the IC50 was 1550 nM. With `Cn1c(=O)cc(C(F)(F)F)c2cc(S(=O)(=O)N3Cc4ccccc4C3)ccc21` [Example 4, 6-(1,3-Dihydroisoindole-2-sulfonyl)-1-methyl-4-trifluoromethyl-1H-quinolin-2-one] the IC50 was over 10000 nM. `O=C(CN1CCN(S(=O)(=O)c2ccc3[nH]c(=O)cc(C(F)(F)F)c3c2)CC1)N1CCCC1` [Example 23, 6-[4-(2-Oxo-2-pyrrolidin-1-ylethyl)piperazine-1-sulfonyl]-4-trifluoromethyl-1H-quinolin-2-one] gave an IC50 of over 10000 nM. In the case of `O=c1cc(C(F)(F)F)c2cc(S(=O)(=O)N3CCCCCC3)ccc2[nH]1` [Example 36, 6-(Azepane-1-sulfonyl)-4-trifluoromethyl-1H-quinolin-2-one], the IC50 is reported as 180 nM. `O=c1cc(C(F)(F)F)c2cc(S(=O)(=O)N3CCC(O)(c4cccs4)CC3)ccc2[nH]1` [Example 16, 6-(4-Hydroxy-4-thiophen-2-ylpiperidine-1-sulfonyl)-4-trifluoromethyl-1H-quinolin-2-one] was tested, and the IC50 was 640 nM. In the case of `O=c1cc(C(F)(F)F)c2cc(S(=O)(=O)N3CCCC3CO)ccc2[nH]1` (stereo not drawn) [Example 30, 6-(2-Hydroxymethyl-pyrrolidine-1-sulfonyl)-4-trifluoromethyl-1H-quinolin-2-one], the IC50 is reported as 2170 nM. In the case of `O=c1cc(C(F)(F)F)c2cc(S(=O)(=O)N3CCN(C4CCCC4)CC3)ccc2[nH]1` [Example 38, 6-(4-Cyclopentylpiperazine-1-sulfonyl)-4-trifluoromethyl-1H-quinolin-2-one], the IC50 is reported as over 10000 nM. `O=c1cc(C(F)(F)F)c2cc(S(=O)(=O)N3CCN(c4ccncc4)CC3)ccc2[nH]1` [Example 27, 6-(4-Pyridin-4-ylpiperazine-1-sulfonyl)-4-trifluoromethyl-1H-quinolin-2-one] showed an IC50 of over 10000 nM. For `Cn1c(=O)cc(C(F)(F)F)c2cc(S(=O)(=O)N3CCN(CCOCCO)CC3)ccc21` [Example 6, 6-{4-[2-(2-Hydroxyethoxy)-ethyl]piperazine-1-sulfonyl}-1-methyl-4-trifluoromethyl-1H-quinolin-2-one], the IC50 was over 10000 nM.

Same assay, conditions: per procedure of Example 57; read-out: IC50
`O=c1cc(C(F)(F)F)c2cc(S(=O)(=O)N3CCCCC3)ccc2[nH]1` [Example 2, 6-(Piperidine-1-sulfonyl)-4-trifluoromethyl-1H-quinolin-2-one] gave an IC50 of 181 nM.

From patent US7064207B2, “Androgen receptor antagonists” (Warner Lambert Company LLC, priority 2003, dated 2006)
